ChEMBL document CHEMBL3044611, “Synthesis of novel Hantzsch dihydropyridines and Biginelli dihydropyrimidines of biological interest: a 3D-QSAR study on their cytotoxicity” (Med Chem Res, 2010)
In brackets after ≈: the same amount, converted by molar mass. Activity calls are given as the source filed them. No cut-off for these calls is given here.

Columns and labels:
[1] = (§1) Cytotoxicity against Chlorocebus aethiops (African green monkey) Vero cells assessed as cell viability after 3 days by SRB assay; assay type: cell-based; conditions: chlorocebus sabaeus, Vero cells
Vero = experiment: as §1; assay type: cell-based; conditions: chlorocebus sabaeus, vero, 72 h
Bacillus subtilis = experiment: Antibacterial activity against Bacillus subtilis at 50 ug/well after 24 hr by agar well diffusion method; assay type: functional, organism-based
Staphylococcus aureus = experiment: Antibacterial activity against Staphylococcus aureus at 50 ug/well after 24 hr by agar well diffusion method; assay type: functional, organism-based

Structure (SMILES)	CC50 at 72 h [1] [µg/mL]	pCC50 (Vero)	Activity (Bacillus subtilis)	Activity (Staphylococcus aureus)
COc1ccc(NC(=O)C2=C(C)NC(=O)NC2c2ccc(N(C)C)cc2)cc1 (stereo not given)	236 (≈ 620 µM)	0.207	inactive	inactive
COc1ccc(NC(=O)C2=C(C)NC(=S)NC2c2ccc(OC)cc2)cc1 (stereo not given)	150 (≈ 391 µM)	0.408	inactive	inactive
CC1=C(C(=O)Nc2ccc(Cl)cc2)C(c2cccc([N+](=O)[O-])c2)C(C(=O)Nc2ccc(Cl)cc2)=C(C)N1	26 (≈ 48.4 µM)	1.315	inactive	inactive
COc1ccc(NC(=O)C2=C(C)NC(=O)NC2c2cccc(Cl)c2)cc1 (stereo not given)	254 (≈ 683 µM)	0.164	inactive	inactive
CC1=C(C(=O)Nc2ccc(Cl)cc2)C(c2ccc(N(C)C)cc2)C(C(=O)Nc2ccc(Cl)cc2)=C(C)N1	155 (≈ 289 µM)	0.538	inactive	inactive
CC1=C(C(=O)Nc2ccc(Cl)cc2)C(c2ccccc2O)C(C(=O)Nc2ccc(Cl)cc2)=C(C)N1	62 (≈ 122 µM)	0.913	inactive	inactive
COc1ccc(NC(=O)C2=C(C)NC(=S)NC2c2cccc(Cl)c2)cc1 (stereo not given)	270 (≈ 696 µM)	0.157	inactive	inactive
COc1ccc(NC(=O)C2=C(C)NC(=S)NC2c2ccc(N(C)C)cc2)cc1 (stereo not given)	500 (≈ 1260 µM)	-0.101	inactive	inactive
CC1=C(C(=O)Nc2ccc(Cl)cc2)C(c2ccco2)C(C(=O)Nc2ccc(Cl)cc2)=C(C)N1	24 (≈ 49.8 µM)	1.302	inactive	inactive
COc1ccc(NC(=O)C2=C(C)NC(=O)NC2c2ccco2)cc1 (stereo not given)	210 (≈ 642 µM)	0.192	inactive	inactive
CC1=C(C(=O)Nc2ccc(Cl)cc2)C(/C=C/c2ccccc2)C(C(=O)Nc2ccc(Cl)cc2)=C(C)N1	21 (≈ 40.5 µM)	1.392	inactive	inactive
COc1ccc(NC(=O)C2=C(C)NC(=O)NC2/C=C/c2ccccc2)cc1 (stereo not given)	15 (≈ 41.3 µM)	1.383	inactive	inactive
COc1ccc(NC(=O)C2=C(C)NC(=O)NC2c2ccccc2)cc1 (stereo not given)	225 (≈ 667 µM)	0.176	inactive	inactive
COc1ccc(C2C(C(=O)Nc3ccc(Cl)cc3)=C(C)NC(C)=C2C(=O)Nc2ccc(Cl)cc2)cc1	20 (≈ 38.3 µM)	1.42	inactive	inactive
COc1ccc(NC(=O)C2=C(C)NC(=S)NC2c2cccc([N+](=O)[O-])c2)cc1 (stereo not given)	80 (≈ 201 µM)	0.697	inactive	inactive
CC1=C(C(=O)Nc2ccc(Cl)cc2)C(c2ccncc2)C(C(=O)Nc2ccc(Cl)cc2)=C(C)N1	78 (≈ 158 µM)	0.8	inactive	inactive
COc1ccc(NC(=O)C2=C(C)NC(=S)NC2c2ccco2)cc1 (stereo not given)	230 (≈ 670 µM)	0.173	inactive	inactive
CC1=C(C(=O)Nc2ccc(Cl)cc2)C(c2ccccc2)C(C(=O)Nc2ccc(Cl)cc2)=C(C)N1	15 (≈ 30.5 µM)	1.516	inactive	inactive
COc1ccc(NC(=O)C2=C(C)NC(=S)NC2c2ccccc2)cc1 (stereo not given)	15 (≈ 42.4 µM)	1.371	inactive	inactive
COc1ccc(NC(=O)C2=C(C)NC(=O)NC2c2ccc(O)c(OC)c2)cc1 (stereo not given)	8 (≈ 20.9 µM)	1.68	inactive	inactive
COc1ccc(NC(=O)C2=C(C)N=C(S)NC2c2ccc(O)c(OC)c2)cc1 (stereo not given)	8 (≈ 20 µM)	1.698	inactive	inactive
COc1ccc(NC(=O)C2=C(C)NC(=O)NC2c2cccc([N+](=O)[O-])c2)cc1 (stereo not given)	64 (≈ 167 µM)	0.776	inactive	inactive
COc1ccc(NC(=O)C2=C(C)NC(=O)NC2c2ccccc2O)cc1 (stereo not given)	160 (≈ 453 µM)	0.343	inactive	inactive
CC1=C(C(=O)Nc2ccc(Cl)cc2)C(c2cccc(Cl)c2)C(C(=O)Nc2ccc(Cl)cc2)=C(C)N1	12 (≈ 22.8 µM)	1.642	inactive	inactive
COc1ccc(NC(=O)C2=C(C)NC(=O)NC2c2ccc(OC)cc2)cc1 (stereo not given)	158 (≈ 430 µM)	0.367	inactive	inactive
COc1cc(C2C(C(=O)Nc3ccc(Cl)cc3)=C(C)NC(C)=C2C(=O)Nc2ccc(Cl)cc2)ccc1O	250 (≈ 464 µM)	0.333	inactive	inactive
CC1=C(C(=O)Nc2ccc(Cl)cc2)CC(C(=O)Nc2ccc(Cl)cc2)=C(C)N1	40 (≈ 96.1 µM)	1.017	inactive	inactive
COc1ccc(NC(=O)C2=C(C)NC(=O)NC2c2ccncc2)cc1 (stereo not given)	10 (≈ 29.6 µM)	1.529	inactive	inactive
COc1ccc(NC(=O)C2=C(C)NC(=S)NC2c2ccccc2O)cc1 (stereo not given)	246 (≈ 666 µM)	0.176	inactive	inactive
COc1ccc(NC(=O)C2=C(C)NC(=O)NC2)cc1	200 (≈ 765 µM)	0.116	inactive	inactive
